Target: Sodium channel protein type 9 subunit alpha (Homo sapiens, UniProt Q15858)
Experiment: Radioligand Binding Assay (EP) (In vitro Assay)
Conditions: pH 7.4; 25 °C
Experimental: Binding of this radioligand was preformed in 5 mL borosilicate glass test tubes at room temperature. […] Non-specific binding was determined in the presence of 1 μM unlabelled compound. […] In 360 μL, membranes were incubated with 100 pM [3H]compound and increasing concentrations of Test Compound. Non-specific binding was defined in the presence of 1 μM unlabelled compound. Reactions were transferred and filtered through 96-well glass fiber/C filter plates presoaked with 0.5% polyethylene imine. […] Bound radioactivity was determined by liquid scintillation counting.

Sodium channel protein type 9 subunit alpha, sequence (Q15858 whole entry): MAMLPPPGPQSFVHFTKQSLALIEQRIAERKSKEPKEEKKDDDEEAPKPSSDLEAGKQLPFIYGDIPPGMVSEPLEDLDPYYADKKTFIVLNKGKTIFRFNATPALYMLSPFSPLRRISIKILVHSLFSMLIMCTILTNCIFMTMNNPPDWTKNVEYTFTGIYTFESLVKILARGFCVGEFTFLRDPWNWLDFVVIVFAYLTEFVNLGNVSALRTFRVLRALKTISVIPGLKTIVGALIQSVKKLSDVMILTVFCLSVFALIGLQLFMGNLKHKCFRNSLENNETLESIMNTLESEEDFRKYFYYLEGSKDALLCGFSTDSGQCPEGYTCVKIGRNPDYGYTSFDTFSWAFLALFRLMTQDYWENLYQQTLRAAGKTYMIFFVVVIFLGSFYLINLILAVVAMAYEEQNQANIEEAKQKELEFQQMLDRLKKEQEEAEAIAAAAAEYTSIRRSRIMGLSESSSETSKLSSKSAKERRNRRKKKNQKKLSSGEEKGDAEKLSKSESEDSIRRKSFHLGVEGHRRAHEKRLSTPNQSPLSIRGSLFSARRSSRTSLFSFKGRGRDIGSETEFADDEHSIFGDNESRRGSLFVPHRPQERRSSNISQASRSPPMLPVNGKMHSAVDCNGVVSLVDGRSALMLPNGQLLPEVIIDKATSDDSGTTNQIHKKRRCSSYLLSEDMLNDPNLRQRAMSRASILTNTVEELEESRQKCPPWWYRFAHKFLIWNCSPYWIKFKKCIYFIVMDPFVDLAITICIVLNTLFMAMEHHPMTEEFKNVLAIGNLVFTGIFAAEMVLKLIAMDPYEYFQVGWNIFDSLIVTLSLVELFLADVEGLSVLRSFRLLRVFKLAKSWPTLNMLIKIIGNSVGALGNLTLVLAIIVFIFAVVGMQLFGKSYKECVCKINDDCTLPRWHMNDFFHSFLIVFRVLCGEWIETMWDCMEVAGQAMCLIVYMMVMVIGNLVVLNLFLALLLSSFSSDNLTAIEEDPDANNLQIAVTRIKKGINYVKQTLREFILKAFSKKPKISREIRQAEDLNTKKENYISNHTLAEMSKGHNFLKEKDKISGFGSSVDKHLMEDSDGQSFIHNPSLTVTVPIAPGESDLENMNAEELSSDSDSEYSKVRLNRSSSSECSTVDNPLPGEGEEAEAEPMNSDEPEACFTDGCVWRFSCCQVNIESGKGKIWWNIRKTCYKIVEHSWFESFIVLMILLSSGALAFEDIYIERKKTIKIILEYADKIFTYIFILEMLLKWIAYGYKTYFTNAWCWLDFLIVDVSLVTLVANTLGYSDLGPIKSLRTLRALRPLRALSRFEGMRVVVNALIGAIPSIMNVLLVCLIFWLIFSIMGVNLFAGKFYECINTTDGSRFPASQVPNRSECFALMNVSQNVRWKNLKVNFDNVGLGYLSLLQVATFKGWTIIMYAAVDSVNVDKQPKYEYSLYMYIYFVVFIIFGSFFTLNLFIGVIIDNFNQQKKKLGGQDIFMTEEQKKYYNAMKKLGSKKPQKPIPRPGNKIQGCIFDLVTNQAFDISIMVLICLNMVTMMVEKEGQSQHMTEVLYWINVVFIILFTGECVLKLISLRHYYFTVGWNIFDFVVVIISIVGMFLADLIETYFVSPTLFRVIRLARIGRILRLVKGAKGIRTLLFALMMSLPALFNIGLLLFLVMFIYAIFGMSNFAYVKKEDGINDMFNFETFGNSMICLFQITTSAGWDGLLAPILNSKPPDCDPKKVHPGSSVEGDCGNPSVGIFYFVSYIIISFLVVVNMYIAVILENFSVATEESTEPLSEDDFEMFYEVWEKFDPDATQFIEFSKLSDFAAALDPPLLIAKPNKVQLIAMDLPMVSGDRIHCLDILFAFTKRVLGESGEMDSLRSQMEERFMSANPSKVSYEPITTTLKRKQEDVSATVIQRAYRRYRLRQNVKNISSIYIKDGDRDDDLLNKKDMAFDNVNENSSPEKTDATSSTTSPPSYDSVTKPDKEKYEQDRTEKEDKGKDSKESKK

Structure (SMILES)	IC50
CC1(COc2cc(F)c(C(=O)NS(C)(=O)=O)cc2C2CC2)CCN(Cc2cc(C(F)(F)F)ccc2C(F)(F)F)CC1 [US9546164, 107]	2.1 nM
CS(=O)(=O)NC(=O)c1cc(C2CC2)c(OCC2(F)CN(C(c3ccccc3)c3ccccc3)C2)cc1F [US9546164, 67]	7.9 nM
O=C(NS(=O)(=O)N1CCC1)c1cc(C2CC2)c(OCC2CC3CCC(C2)N3C(c2ccccc2)c2ccccc2)cc1F (stereo not drawn) [US9546164, 49]	4.3 nM
CC(C)(C)OC(=O)N1CCC(COc2cc(F)c(C(=O)NS(C)(=O)=O)cc2Cl)CC1 [US9546164, 78]	490 nM

Continued, values first:

IC50	Structure (SMILES)
4.5 nM	CS(=O)(=O)NC(=O)c1cc(C2CC2)c(OCC2(F)CCN(Cc3cc(Cl)ccc3C(F)(F)F)CC2)cc1F [US9546164, 348]
40.9 nM	CS(=O)(=O)NC(=O)c1cc(C2CC2)c(OCC2CCN(S(=O)(=O)c3cc(F)c(F)c(F)c3)CC2)cc1F [US9546164, 380]
8.8 nM	O=C(NS(=O)(=O)C1CC1)c1cc(C2CC2)c(OCC2CCN(S(=O)(=O)c3ccc4ccccc4c3)CC2)cc1F [US9546164, 389]
35.1 nM	CC(c1ccc(OC(F)(F)F)cc1)N1CC(COc2cc(F)c(C(=O)NS(C)(=O)=O)cc2C2CC2)C1 (stereo not drawn) [US9546164, 157]

From BindingDB's records for patent US9546164 (Genentech Inc, 2017)
